Measured values: article PMC10283052, “Intranasal delivery of mitochondrial protein humanin rescues cell death and promotes mitochondrial function in Parkinson's disease” (Theranostics, 2023)

Experiments:
[1] = tested on: mtDNA-depleted (Rho^0) SH-SY5Y cells; experiment: Humanin induction in mtDNA-depleted Rho0 cells (PCR, western blot); type: cell-based, human; conditions: Rho0 cells devoid of mtDNA; HN 20 μM, 24 h; conventional PCR and western blot
Method: For generating SH-SY5Y Rho^0 cells depleted of mitochondrial DNA, we treated the cells with ethidium bromide (0.5 μg/ml) (Sigma-Aldrich) for 2 months as described previously. SH-SY5Y Rho^0 cells were grown in the same culture medium but supplemented with an additional 50 μg/ml of uridine and 100 μg/ml of pyruvate to support cell growth.
(§1) Mouse brain tissue samples and cells were homogenized in radioimmunoprecipitation assay (RIPA) buffer (Cell Signaling, Danvers, MA, USA) in the presence of a protease and phosphatase inhibitor cocktail (Thermo Fisher Scientific). The samples were sonicated on ice, and the supernatant was collected after centrifugation at 4°C at 10,000 g for 5 min. The protein samples were loaded and separated using Tris-glycine SDS-PAGE. To detect the HN peptide, the proteins were separated into three layers of tricine SDS-PAGE, as previously described. The separated proteins were transferred to nitrocellulose membranes (GenDEPOT, Barker, TX, USA). The membranes were blocked for 0.5 h, followed by incubation with appropriate primary antibodies overnight at 4°C. […] The results were analyzed using the ImageJ densitometry system. […]
The loss of mtDNA in SH-SY5Y Rho^0 cells was determined by standard PCR with three pairs of primers (Table S1), two specifically for mtDNA (mt-ND4, humanin) and one specifically for nuclear DNA (ATP5PB). […]

SH-SY5Y cells = experiment: Mitochondrial mass and network morphology, MitoTracker Green; type: cell-based, human; conditions: HN 20 μM, 24 h
Method: For staining, the cells were seeded on PDL-coated glass slides and treated as indicated above. The samples were fixed using methanol and permeabilized using 0.1% Triton X-100 in PBS. After blocking with 5% bovine serum albumin (BSA), the cells were incubated with the appropriate primary antibody [anti-HN (1:500, Cat no # RA19000, Neuromics, Edina, MN, USA), anti-TH (1:500, Cat no # P40101, Pel-Freez Biologicals, Rogers, AR, USA), anti-lectin (1:200, Cat no # L32482, Thermo Fisher Scientific), anti-α-SMA (1:500, Cat no # ab5694, Abcam, Cambridge, MA, USA), and anti-GFAP (1:200, Cat no # sc-33673, Santa Cruz, Santa Cruz, USA)]. After incubation, the samples were washed and incubated with Alexa Fluor 594- or 488-conjugated antibodies (Thermo Fisher Scientific). The nuclei were stained using Hoechst 33342 (Sigma-Aldrich) and mounted using an anti-fade solution (Thermo Fisher Scientific). Fluorescent images were captured at the Neuroscience Translational Research Solution Center (Busan, South Korea) using an LSM 700 confocal microscope (Zeiss, Jena, Germany). The mitochondrial network morphology was assessed using the FIJI/ImageJ software as described previously.

rat organotypic slices = experiment: Ex vivo PD model, organotypic brain slices with 6-OHDA; type: cell-based; conditions: then 6-OHDA 100 μM, 2 h
Method: Postnatal 5-7-day-old rat pups were used to prepare organotypic slices, as previously described, with minor modifications. The brain of anesthetized pups was aseptically removed. The brain hemispheres were separated and cut sagittally into 350-μm slices using a MacIlwain tissue chopper (MacIlwain, Mickle Laboratory, Cambridge, UK). The slices were transferred to ice-cold Gray's Balanced Salt solution containing CaCl2 (1.5 mM), NaCl (136 mM), KCl (5 mM), KH2PO4 (0.2 mM), MgCl2 (1 mM), MgSO4 (0.2 mM), NaHCO3 (0.2 mM), Na2PO4 (0.08 mM), and glucose (5.5 mM). […]
Mouse brain tissue samples and cells were homogenized in radioimmunoprecipitation assay (RIPA) buffer (Cell Signaling, Danvers, MA, USA) in the presence of a protease and phosphatase inhibitor cocktail (Thermo Fisher Scientific). […] The results were analyzed using the ImageJ densitometry system. […]
The organotypic slice cultures were exposed to 6-OHDA at the tissue surface on DIV 8 to avoid apoptosis due to nutrients and to induce proper maturation. […] Intracellular ATP was quantified using the CellTiter-Glo Luminescent Viability Kit (Promega Corporation, Madison, WI, USA), according to the manufacturer's protocol. Luminescence was measured using a SpectraMax L Microplate Reader (Molecular Devices).

[2] = tested on: differentiated PC12 cells exposed to MPP^+; experiment: Intracellular humanin in MPP+-exposed differentiated PC12 cells, western blot; type: cell-based, rat; conditions: HN treatment, MPP+ exposure
Method: For neuronal differentiation of PC12 cells, the cells were grown in DMEM containing 1.5% horse serum, 1.5% FBS, 1% P/S, and 100 ng/mL nerve growth factor (NGF, Thermo Fisher Scientific) every 2 days. PC12 cells were differentiated for 7 days and used for subsequent experiments.
as §1, with “4°C. The primary antibodies used were as follows: anti-tyrosine hydroxylase (Cat # P40101, Pel-Freez Biologicals), anti-HN (Cat # RA19000, Neuromics), anti-β-actin (Cat # GTX109639, GeneTex, Irvine, CA, USA), and anti-GAPDH (Cat # AM4300, Thermo Fisher Scientific).” for “4°C.”

With “humanin (MAPRGFSCLLLLTSEIDLPVKRRA; Humanin; UniProt Q8IVG9 1-24, looked up) [HN, mitochondria-derived peptide encoded by the mitochondrial genome, synthesized by Fmoc-based SPPS at GL Biochem]” the “induction of intracellular humanin by HN peptide” value [1] was “abolished”, the mitochondrial branch length (SH-SY5Y cells; versus DMSO) was “longer rods and branches of mitochondria” and the mitochondrial volume (SH-SY5Y cells; versus DMSO) was “increase in mitochondrial volume”. The “number of branches per mitochondrial network” value (SH-SY5Y cells; versus DMSO) was “increase”, the mitochondrial mass (SH-SY5Y cells; MitoTracker Green) was “increased mitochondrial mass” and the “mitochondrial biogenesis markers PGC-1α and NRF1, western blot” value (rat organotypic slices; HN pre-treatment 1 μM, 24 h) was “stimulated mitochondrial biogenesis”. The “ATP levels (CellTiter-Glo luminescence)” value (rat organotypic slices; HN pre-treatment 24 h, 0.1 or 1 μM) was “effectively inhibited significant depletion of ATP levels” and the intracellular humanin [2] was “upregulated intracellular humanin”.
